From patent publication US5480987A, “2-substituted alkyl-3-carboxy carbapenems as antibiotics and a method of producing them” (American Cyanamid Company, priority 1994, dated 1996)
Counter-ions that a name gives are not always drawn.

What was measured:
Type in all cases: cell-based
Staph. aureus ACCC 25923 = assay: In vitro antibacterial activity, MIC by tube dilution, SA(2); settings: Nutrient Broth; for MIC: Staphylococcus aureus, ACCC25923, overnight incubation at 37° C., read-out: Minimum Inhibitory Concentration (MIC)
Ent. cloacae = assay: In vitro antibacterial activity, MIC by tube dilution, Ent C; settings: overnight incubation at 37° C., Nutrient Broth; for MIC: Enterobacter cloacae, read-out: Minimum Inhibitory Concentration (MIC)
E. coli ATCC 35218 = assay: In vitro antibacterial activity, MIC by tube dilution, Ec(2); settings: Nutrient Broth; for MIC: Escherichia coli, ATCC35218, overnight incubation at 37° C., read-out: Minimum Inhibitory Concentration (MIC)
Ser. marceslens = assay: In vitro antibacterial activity, MIC by tube dilution, SM; settings: overnight incubation at 37° C., Nutrient Broth; for MIC: read-out: Minimum Inhibitory Concentration (MIC)
E. coli ATCC 25922 = assay: In vitro antibacterial activity, MIC by tube dilution, Ec(1); settings: Nutrient Broth; for MIC: Escherichia coli, ATCC25922, overnight incubation at 37° C., read-out: Minimum Inhibitory Concentration (MIC)
Staph. aureus ATCC 29213 = assay: In vitro antibacterial activity, MIC by tube dilution, SA(1); settings: Nutrient Broth; for MIC: Staphylococcus aureus, ATCC29213, overnight incubation at 37° C., read-out: Minimum Inhibitory Concentration (MIC)
E. Coli-OXA-5 = assay: In vitro antibacterial activity of carbapenem, piperacillin and 1:1 combination; settings: single agent
Experimental: (§1) A sample of the carbapenems prepared in this invention is tested in combination with the penicillin Piperacillin. The enhanced combined synergistic antibacterial activity is representative of the anti β-lactamase properties of the carbapenems in this invention (Table 2).

E. Coli-OXA-4 = assay: as above; settings: single agent
Experimental: as §1

E. Coli-OXA-2 = assay: as above; settings: single agent
Experimental: as §1

E. Coli-OXA-7 = assay: as above; settings: single agent
Experimental: as §1

Pseudomonas OXA-6 = assay: as above; settings: single agent
Experimental: as §1

Row | SMILES | MIC (Staph. aureus ACCC 25923) | MIC (Ent. cloacae) | MIC (E. coli ATCC 35218) | MIC (Ser. marceslens) | MIC (E. coli ATCC 25922) | MIC (Staph. aureus ATCC 29213) | Minimum Inhibitory Concentration (MIC) (Staph. aureus ACCC 25923; overnight incubation at 37° C.) | Minimum Inhibitory Concentration (MIC) (Ent. cloacae) | Minimum Inhibitory Concentration (MIC) (E. coli ATCC 35218; overnight incubation at 37° C.) | Minimum Inhibitory Concentration (MIC) (Ser. marceslens) | Minimum Inhibitory Concentration (MIC) (E. coli ATCC 25922; overnight incubation at 37° C.) | Minimum Inhibitory Concentration (MIC) (Staph. aureus ATCC 29213; overnight incubation at 37° C.) | M.I.C. (E. Coli-OXA-5) | M.I.C. (E. Coli-OXA-4) | M.I.C. (E. Coli-OXA-2) | M.I.C. (E. Coli-OXA-7) | M.I.C. (Pseudomonas OXA-6)
1 | CC(O)C1C(=O)N2C(C(=O)O)=C(CS(=O)(=O)c3cccs3)CC12 (stereo not drawn) [Example 10, [5R-[5Alpha,6alpha(R*)]]-6-(1-hydroxyethyl)-3-[(2-thienylsulfonyl)methyl]-7-oxo-1-azabicyclo[3.2.0]-hept-2-ene-2-carboxylic acid, monosodium salt] | 0.06 µg/mL | 32 µg/mL | 1 µg/mL | 32 µg/mL | 1 µg/mL | 0.06 µg/mL | – | – | – | – | – | – | – | – | – | – | –
2 | COC(=O)C(Cl)=C1CC2C(C(C)O)C(=O)N2C1C(=O)[O-].[Na+] (stereo not drawn) [Example 44, (2R-[2Alpha,3(R* or S*),5alpha,6alpha(R*)]]-3-(1-chloro-2-methoxy-2-oxoethylidene)-6-(1-hydroxyethyl)-7-oxo-1-azabicyclo[3.2.0]heptane-2-carboxylic acid, monosodium salt] | – | – | – | – | – | – | 64 µg/mL | 128 µg/mL | 128 µg/mL | 128 µg/mL | 128 µg/mL | 64 µg/mL | – | – | – | – | –
3 | CC(O)C1C(=O)N2C(C(=O)O)=C(CS(=O)(=O)c3ccc(F)cc3)CC12 (stereo not drawn) [Example 48, [5R-[5Alpha,6alpha(R*)]]3-[[fluorophenyl)sulfonyl]methyl]-6-(1-hydroxyethyl)-7-oxo-1-azabicyclo[3.2.0]hept-2-ene-2-carboxylic acid, monosodium salt] | 0.06 µg/mL | 64 µg/mL | 8 µg/mL | 32 µg/mL | 8 µg/mL | 0.06 µg/mL | – | – | – | – | – | – | 32 µg/mL | 32 µg/mL | 32 µg/mL | 16 µg/mL | 128 µg/mL
4 | CCN1CCN(C(=O)N[C@@H](C(=O)N[C@@H]2C(=O)N3[C@@H]2SC(C)(C)[C@@H]3C(=O)O)c2ccccc2)C(=O)C1=O [Piperacillin, reference compound] | – | – | – | – | – | – | – | – | – | – | – | – | 2 µg/mL | 8 µg/mL | 16 µg/mL | 128 µg/mL | 32 µg/mL
